≈ marks a conversion by molar mass, not a printed value.
Assays:
[1] = tested on: Paenibacillus larvae subsp. pulvifaciens; assay: MIC by broth microdilution, bee pathogens; assay type: cell-based; conditions: range 1000 ppm to 0.25 ppm
Text: (§1) We tested allicia (Allisure™ Liquid) activity against several species of entomopathogenic bacteria (Paenibacillus larvae subsp. larvae, Paenibacillus larvae subsp. pulvifaciens) and fungi (Ascosphaera apis and Ascosphaera aggregata) using broth microdilution method to determine minimum inhibitory concentration (MIC) and the agar diffusion test (Kirby-Bauer) to determine zone of inhibition. Bacterial spores were isolated from the diseased honey bee larval samples. A small aliquot of heat-treated bacterial spores was suspended in 100 μl of phosphate buffered saline-pH 7.2 (PBS) and plated on semi-selective J. Agar medium, containing Nalidixic and Pipemidic acid (Alippi, A M (1995) Detection of Bacillus larvae spores in Argentinian honeys by using a semi-selective medium. Microbiologia 1995 11(3): 343-50; and Govan, V A; Allsopp, M H; Davison, S A (1999) PCR Detection Method for Rapid Identification of Paenibacillus larvae. Applied and Environmental Microbiology 65(5): 2243-2245.
(§2) The plates were incubated at 33° C. in air containing 6% CO2 and 95% RH. The initial species identification was based on morphological, biological and cultural characteristics. The bacterial culture was tested for a catalase reaction (Leboffe, M. J and Pierce, B e (1999) A photographic atlas for the microbiology laboratory. Morton Publishing Company. 254 pp). The bacterial colonies were characterized by shape, margins and color. Gram-positive stained smears (Gram-stain Reagents Kit, EMD Chemicals Inc., NJ) were examined for morphological identification of vegetative cells and spores.
(§3) DNA based PCR identification was performed to corroborate identification of the bacterial species. Bacterial cells from culture plates were added directly to 30 μl of PCR reaction. The PCR primers used in the reaction were based on the 16S RNA sequence to selectively amplify a fragment of 973 by unique to P. larvae (Govan et al., 1999). The PCR products were visualized by 0.8% agarose gel electrophoresis in TAE buffer and ethidium bromide staining. The reference strains of bacteria were used as a control in PCR reactions and were provided by the National Center for Agricultural Research, Peoria, Ill. P. l. larvae (NRRL B-3560, B-2605) and P. l. palvifaciens (NRRL B-3688, B-3685, B-3689, NRS-1687, P. alvei B383).
(§4) Positive controls contained the antibiotic Tylosin (Tylan® 50, Elanco Animal Health Inc., IN) and negative controls contained no antibiotics. […] The optical densities of cultures (OD 600) were recorded 24 h and 48 h post inoculation, depending on the growth rate of the microbial species. […] Minimum bactericidal concentration values (NBC) were determined for allicin by plating out 100 μl of bacterial cultures derived from the MIC assay. […]

[2] = tested on: Paenibacillus larvae subsp. larvae; assay: MIC by broth microdilution, bee pathogens; assay type: cell-based; conditions: range 1000 ppm to 0.25 ppm
Text: as §1, §2, §3, §4

**Q.** For `C=CCS[S+]([O-])CC=C` (centres unmarked) [allicin, Allicin], which MIC [1] is on record?
**A.** 350 µg/mL (≈ 2160 µM)

**Q.** What about the MIC [2] of the same compound?
**A.** 350 µg/mL (≈ 2160 µM)
